Test results published in PubChem BioAssay AID1419 (Emory University Molecular Libraries Screening Center, 2008).
Activity calls are given as the source filed them. The rule behind the calls is not given here.

Experiment: blockers of an Epstein-Barr virus protein-peptide interaction – biochemical, fluorescence polarization, dose response (AID 1419)
Conditions: cell-free protein-peptide binding, 2 h; for fold change: measured here: P channel fold over control, at 54 µM

`COc1ccc(C2C(C(C)=O)=C(C)N=c3s/c(=C\c4cc(C)n(C)c4C)c(=O)n32)c(OC)c1` (stereo unspecified) gave an IC50 of 4.29 µM and a fold change of 11.8.
`Cc1ccc(N=Nc2c(O)n(CN3CCOCC3)c3ccccc23)cc1` showed an IC50 of 2.43 µM and a fold change of 10.9.
In the case of `COc1ccc(-c2nc(CS(=O)CC(=O)NCc3cccnc3)c(C)o2)cc1` (stereo unspecified), the IC50 is reported as > 54 µM (inactive) and the fold change is reported as 1.01.
`CC(=O)Oc1ccc2c(c1)Oc1cc(OC(C)=O)ccc1C21OC(=O)c2ccccc21` showed an IC50 of less than 0.42 µM and a fold change of 23.1.
Compound `COc1cccc(C2C3CN(C)CC=C3C(C#N)=C(N)C2(C#N)C#N)c1OC` (stereo unspecified) has an IC50 of 0.83 µM and a fold change of 9.89.
In the case of `CCCN1C(=O)/C(=C\C=C2\N(CC)c3ccccc3C2(C)C)SC1=S`, the IC50 is reported as 3.39 µM and the fold change is reported as 20.
For `CCN(CC)CCN1C2=C(C(=O)CC(C)(C)C2)C(c2cccc(F)c2)C2=C1CC(C)(C)CC2=O`, the IC50 was > 54 µM (inactive) and the fold change was 1.03.
`N#C/C(=C\C1=C(N2CCOCC2)C(=C/c2cccc([N+](=O)[O-])c2)/CC1)C(=O)Nc1ccccc1F` gave an IC50 of 3.64 µM and a fold change of 2.26.
Compound `COc1ccccc1NC(=O)c1sc2nc(Cc3ccccc3)cc(C(F)(F)F)c2c1N` has an IC50 of 1.71 µM and a fold change of 10.7.
In the case of `CC(C)(C)c1ccc(OCC(=O)Nc2ccc3c4c(cccc24)C(=O)NC3=O)cc1`, the IC50 is reported as > 54 µM (inactive) and the fold change is reported as 2.15.
In the case of `C=CCn1c(O)c(N=NC(=O)CNC(=O)/C=C/c2ccco2)c2ccccc21`, the IC50 is reported as > 54 µM (inactive) and the fold change is reported as 0.747.
For `CC(=C/c1ccccc1)/C=N/NC(=O)c1cnccn1`, the IC50 was > 54 µM (inactive) and the fold change was 1.1.
`CC(C)[C@H]1C(=O)N2CCC[C@H]2[C@]2(O)O[C@](NC(=O)[C@@H]3C=C4c5cccc6[nH]cc(c56)C[C@H]4N(C)C3)(C(C)C)C(=O)N12` gave an IC50 of 3.64 µM and a fold change of 5.11.
In the case of `O=C(Cn1c2ccccc2c(=O)c2ccccc21)N/N=C/c1ccc(N2CCCC2)c([N+](=O)[O-])c1`, the IC50 is reported as > 54 µM (inactive) and the fold change is reported as 0.76.
For `Cc1ccc(NC(=O)CN2C(=O)N/C(=C/c3cccn3-c3ccc(C(=O)O)cc3)C2=O)cc1`, the IC50 was > 54 µM (inactive) and the fold change was 1.2.
`COc1ccc(C(=O)c2sc3nc(C)cc(-c4cccs4)c3c2N)cc1OC` showed an IC50 of 16.5 µM and a fold change of 7.43.
With `Cc1cc(C)c2cc3c(ccn3C3OC[C@H](O)[C@H](O)[C@H]3O)cc2n1` (stereo partly specified) the IC50 was 3.78 µM and the fold change was 2.96.
`O=C(CSc1ccccn1)Nc1ccc2c(c1)C(=O)c1ccccc1C2=O` showed an IC50 of 19.4 µM and a fold change of 0.783.
With `CCCCCn1c(N)c(-c2nc3ccccc3o2)c2c([N+](=O)[O-])nn(CC)c(=O)c21` the IC50 was > 54 µM (inactive) and the fold change was 0.747.
In the case of `COc1ccc(C2C=C(c3ccc(Br)s3)Nc3ncnn32)cc1OC` (stereo unspecified), the IC50 is reported as less than 0.42 µM and the fold change is reported as 24.3.
`COc1ccc(C2C=C(c3ccc(Cl)cc3)Nc3nc(NC(C)=O)nn32)cc1` (stereo unspecified) showed an IC50 of 5.59 µM and a fold change of 3.32.
In the case of `CCn1c(COc2ccccc2C)nnc1SCC(=O)N1CCC(C)CC1`, the IC50 is reported as > 54 µM (inactive) and the fold change is reported as 0.897.
`CC1CN(c2nc3ccccc3nc2C(C#N)C(=O)NCc2ccc3c(c2)OCO3)CC(C)O1` (stereo unspecified) showed an IC50 of 5.37 µM and a fold change of 4.35.
With `Cn1c(O)c(C=Nc2ccc(N3CCOCC3)cc2)c(=O)n(C)c1=S` the IC50 was 18.9 µM and the fold change was 6.36.
For `CCN(CC)c1ccc2cc(NC(=O)CCC(=O)O)c(=O)oc2c1`, the IC50 was 1.17 µM and the fold change was 12.
Compound `Cn1c(=O)c(N)c2c3c(c(Br)ccc31)C(=O)c1ccccc1-2` has an IC50 of less than 0.42 µM and a fold change of 98.9.
In the case of `O=C(Nc1ccc2[nH]c3c(c2c1)CCCC3)c1ccco1`, the IC50 is reported as 27.9 µM and the fold change is reported as 2.83.
In the case of `CC1=CC(C#N)(C#N)C(C#N)(C#N)C(c2ccccc2)N1` (stereo unspecified), the IC50 is reported as less than 0.42 µM and the fold change is reported as 10.
In the case of `Cc1cc(Br)c2nc3c(c(C(=O)O)c2c1)CCCCC3`, the IC50 is reported as > 54 µM (inactive) and the fold change is reported as 1.06.
In the case of `COc1ccc(/C(O)=C/c2nc3ccccc3n(-c3ccccc3)c2=O)cc1`, the IC50 is reported as > 54 µM (inactive) and the fold change is reported as 17.
With `Cc1cccc(N2C(=O)c3cccc4c(N(C)CCO)ccc(c34)C2=O)c1` the IC50 was less than 0.42 µM and the fold change was 34.9.
For `CC1=CC(=C(C#N)c2nc3ccccc3s2)C=C(C)N1CC1CCCO1` (stereo unspecified), the IC50 was 3.9 µM and the fold change was 9.43.
Compound `Nc1ccc2nonc2c1[N+](=O)[O-]` has an IC50 of less than 0.42 µM and a fold change of 41.
`CC(C)c1nnc(N2C(=O)C(O)=C(C(=O)c3cccs3)C2c2ccccc2)s1` (stereo unspecified) gave an IC50 of less than 0.42 µM and a fold change of 4.97.
Compound `COc1ccccc1N1C(=O)C2C(C(=O)c3ccccc3)=NN(c3ccccc3)C2C1=O` (stereo unspecified) has an IC50 of 8.66 µM and a fold change of 8.64.
`Cc1cc(/C=C2\C(=O)NC(=O)N(c3cccc(Br)c3)C2=O)c(C)n1C` showed an IC50 of 7.34 µM and a fold change of 9.43.
With `COc1ccc2nc(C)cc(N3CCOCC3)c2c1` the IC50 was > 54 µM (inactive) and the fold change was 1.04.
Work on `O=[N+]([O-])c1cccc(-c2cn3nc(-c4ccccc4)c(-c4ccccc4)nc3n2)c1` yielded an IC50 of 5.71 µM and a fold change of 6.61.
`CC(C)Oc1ccc(-c2nn(-c3ccccc3)cc2/C=c2\sc3ncnn3c2=O)cc1` gave an IC50 of 1.43 µM and a fold change of 14.3.
With `CC(C)OC(=O)c1c2c(n3ccccc13)C(=O)c1ccccc1C2=O` the IC50 was 3.85 µM and the fold change was 2.93.
Work on `Cc1ccc(S(=O)(=O)Nc2nc3ccccc3nc2Nc2cccc(S(=O)(=O)N3CCCC3)c2)cc1` yielded an IC50 of 2.64 µM and a fold change of 2.44.
In the case of `CC(C)(C)NC(=O)c1sccc1C(=O)O`, the IC50 is reported as > 54 µM (inactive) and the fold change is reported as 1.06.
`CCc1cc[n+](-c2nc3ccccc3nc2[N-]S(=O)(=O)c2ccc(Br)s2)cc1` gave an IC50 of 3.71 µM and a fold change of 3.49.
For `Cc1cc(-c2nc3c4c5c(sc4[nH]c(=O)n3n2)CCC5)c(C)o1`, the IC50 was 21.8 µM and the fold change was 1.2.
With `O=C(Nc1ccc(Cl)c(Cl)c1)Nc1nnc(-c2ccncc2)s1` the IC50 was 2.54 µM and the fold change was 1.23.
For `CC1(C)CC(=O)C2=C(C1)OC(N)=C(C#N)C2c1cc2c(cc1[N+](=O)[O-])OCO2` (stereo unspecified), the IC50 was 2.04 µM and the fold change was 3.34.
`CN(C)c1ccc(/C=C/C(=O)c2cccc(Br)c2)cc1` gave an IC50 of 8.66 µM and a fold change of 11.4.
In the case of `Cc1ccc2[nH]c(O)c(N=NC(=O)c3ccc(NS(=O)(=O)c4cccs4)cc3)c2c1`, the IC50 is reported as > 54 µM (inactive) and the fold change is reported as 0.957.
Work on `N=C1/C(=C\c2ccc(-c3cccc(C(=O)O)c3)o2)C(=O)N=C2SC=C(c3ccccc3)N12` yielded an IC50 of 4.25 µM and a fold change of 1.23.
For `N=c1oc2ccc3ccccc3c2cc1-c1nc(-c2ccccc2)cs1`, the IC50 was 4.67 µM and the fold change was 8.37.
`CCN(CC)c1ccc2c(c1)oc(=O)c1c(Cl)cc(=O)oc12` gave an IC50 of 6.37 µM and a fold change of 11.9.
For `COC(=O)C1C=C2c3cccc4[nH]cc(c34)CC2N(C)C1` (stereo unspecified), the IC50 was 1.66 µM and the fold change was 6.81.
In the case of `CCOC(=O)[C@]1(C#N)[C@@H]2C=CC(C(C)=O)=CN2[C@@H](C(N)=O)[C@@H]1c1ccsc1`, the IC50 is reported as 4.35 µM and the fold change is reported as 3.68.
For `Cc1ccc(C(NC(=O)C2CCCCC2)c2c(O)ccc3ccccc23)cc1` (stereo unspecified), the IC50 was > 54 µM (inactive) and the fold change was 1.03.
With `CCOC(=O)c1cc(-c2ccc(/C=C3/C(=O)NC(=O)C(C#N)=C3C)o2)ccc1Cl` the IC50 was less than 0.42 µM and the fold change was 2.14.
With `COc1ccc(NC(=O)CSc2nc3c(c(-c4cccs4)c2C#N)CN(C)CC3)cc1OC` the IC50 was > 54 µM (inactive) and the fold change was 1.37.
Compound `CCOC(=O)C1CCCN(c2nc3ccccc3nc2C(C#N)C(=O)NCc2ccccc2)C1` (stereo unspecified) has an IC50 of 8.82 µM and a fold change of 2.73.
With `O=C(/C(=C(\[O-])c1ccccc1)[n+]1ccc2ccccc2c1)c1ccccc1` the IC50 was 4.31 µM and the fold change was 3.02.
With `C/C(=N/OC(=O)c1c(-c2c(Cl)cccc2Cl)noc1C)c1cnccn1` the IC50 was > 54 µM (inactive) and the fold change was 0.997.
With `Cc1cc[n+](-c2[nH]c(=O)sc2/C=N/NC([S-])=Nc2ccccc2)cc1` the IC50 was > 54 µM (inactive) and the fold change was 1.42.
In the case of `CCCN1CC=C2C(C#N)=C(N)C(C#N)(C#N)C(c3cccc(OC)c3OC)C2C1` (stereo unspecified), the IC50 is reported as 1.28 µM and the fold change is reported as 7.4.
Work on `Cc1ccc[n+](-c2nc([O-])sc2C=O)c1` yielded an IC50 of 0.65 µM and a fold change of 44.1.
For `Cc1ccc(NC(=O)CN2C(=O)S/C(=C/c3ccc(O)c([N+](=O)[O-])c3)C2=O)cc1C`, the IC50 was > 54 µM (inactive) and the fold change was 0.99.
Work on `NS(=O)(=O)c1ccc(NC(=O)c2ccc(-c3ccccc3)cc2)cc1` yielded an IC50 of 25.1 µM and a fold change of 1.08.
For `COc1ccc(-n2c(N)c(C#N)c3ccc([N+](=O)[O-])cc3c2=O)cc1`, the IC50 was > 54 µM (inactive) and the fold change was 1.45.
`CC(C)(C)c1cc[n+](-c2[nH]c(=O)sc2/C=N/NC([S-])=Nc2ccccc2)cc1` gave an IC50 of less than 0.42 µM and a fold change of 13.6.
`CCN(CC)C(=O)CSc1nnc2nnc3cc(Cl)ccc3n12` showed an IC50 of 4.38 µM and a fold change of 3.1.
Compound `CCN(c1ccc(N=Cc2c(O)n(Cc3ccc(OC)cc3)c(=O)c3ccccc23)cc1)C(C)C` has an IC50 of 2.17 µM and a fold change of 132.
For `C=CCOc1cccc(C2C(C(=O)c3ccc(C)o3)=C(O)C(=O)N2c2nccs2)c1` (stereo unspecified), the IC50 was less than 0.42 µM and the fold change was 4.84.
With `Cc1c(N=C2N=C(NC(=O)c3ccc(F)cc3)c3ccccc32)c(=O)n(-c2ccccc2)n1C` the IC50 was 6.56 µM and the fold change was 6.09.
For `CN1C(=O)/C(=C\N2CCc3ccccc32)C(=O)NC1=S`, the IC50 was > 54 µM (inactive) and the fold change was 1.14.
`COc1ccc(NC(=O)CSc2ccc3c4c(cccc24)C(=O)c2ccccc2-3)cc1` gave an IC50 of 3.14 µM and a fold change of 11.
Work on `CCOC(=O)/C(C#N)=C\c1ccc(N2CCN(C/C=C/c3ccccc3)CC2)cc1` yielded an IC50 of 18.7 µM and a fold change of 16.
With `CCOC(=O)C(=O)/C(=C\N(C)C)c1onc(-c2ccccc2)c1C(=O)OC` the IC50 was > 54 µM (inactive) and the fold change was 1.05.
`Cc1nn(C)c(C)c1N1C(=O)c2cccc3c(N)ccc(c23)C1=O` showed an IC50 of less than 0.42 µM and a fold change of 203.
For `Cc1cc(=O)oc2c(CN3CCC(C)CC3)c(O)c(Cl)cc12`, the IC50 was 2.42 µM and the fold change was 2.16.
`CCCCNc1c2c3c(cccc3n(C)c1=O)C(=O)c1ccccc1-2` showed an IC50 of less than 0.42 µM and a fold change of 150.
Work on `O=C(NCCCO)Nc1ccc2nc(-c3ccco3)c(-c3ccco3)nc2c1` yielded an IC50 of 4.06 µM and a fold change of 5.99.
